# Reference: paper PMC12362615, “Design, Synthesis, and Cellular Characterization of a New Class of IPMK Kinase Inhibitors” (Journal of Medicinal Chemistry, 2025)
# Several values for one entry are separate records, joined by “and”; a condition that tells them apart may be missing. Identical values can stand only once. Like-named read-outs stand apart in the source and are kept apart here.
# How the values were obtained:
# [1] = target: T1, purified recombinant human IP6K2 kinase domain (Homo sapiens, UniProt Q9UHH9); assay: IP6K2 IC50 determination, malachite green Pi release assay; type: biochemical; settings: for IP6K2/IPMK: Table S1, ratio of IC50 values; for IC50: supplementary csv
# T1 sequence (Q9UHH9 1-426): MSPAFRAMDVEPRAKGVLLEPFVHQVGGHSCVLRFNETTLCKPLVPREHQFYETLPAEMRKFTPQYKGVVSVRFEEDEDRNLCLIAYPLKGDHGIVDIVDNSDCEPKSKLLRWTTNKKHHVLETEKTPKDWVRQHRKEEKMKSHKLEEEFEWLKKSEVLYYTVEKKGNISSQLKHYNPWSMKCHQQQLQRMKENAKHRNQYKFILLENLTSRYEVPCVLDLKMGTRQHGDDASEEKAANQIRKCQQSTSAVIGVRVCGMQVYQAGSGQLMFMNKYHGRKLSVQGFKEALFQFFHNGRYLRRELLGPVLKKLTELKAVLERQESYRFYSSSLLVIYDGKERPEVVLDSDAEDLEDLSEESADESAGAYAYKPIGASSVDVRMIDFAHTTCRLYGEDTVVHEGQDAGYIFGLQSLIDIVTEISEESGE
# Experimental: IP6K2 IC50 values were determined using the purified recombinant human IP6K2 kinase domain expressed in a 384-well clear polystyrene plate (VWR 82051-264). This human IP6K2 kinase domain (100 nM) was used at 37 °C in 50 μL reaction mixtures containing 5.0 μM human Dipp1, 50 mM Tris (pH 6.9), 10 mM MgCl2, 0.02% Triton X-100, 25 μM InsP6, and 50 μM ATP for 30 min. Pi release was determined with a malachite green colorimetric assay. Reactions were quenched by the addition of 12.5 μL of phosphate detection reagent (MAK3071KT, Sigma-Aldrich). Pi release was quantified from the absorbance at 620 nm by using appropriate standards.
# [2] = Pharmacokinetic studies in mice; type: in vivo, male CD1 mice; settings: IV, 3 mg/kg; for AUC(0-t) / Cmax / clearance / half-life / Vd: male, CD1, mouse, plasma; for Vd: read-out: Vss
# Experimental: All the procedures related to animal handling, care, and treatment in this study were performed according to guidelines approved by the Institutional Animal Care and Use Committee (IACUC) of Pharmaron (PK-R-06012023 and PK-M-07182023), following the guidance of the Association for Assessment and Accreditation of Laboratory Animal Care (AAALAC). A group of 3 male CD1 mice (2 for exploratory PK) were dosed intravenously (IV) or intraperitoneally (IP) with a solution formulation of the tested compounds in 10% NMP, 5% Solutol in normal saline (v/v/v, 10:5:85). From each mouse, blood samples ([…]) were collected from the orbital vein such that samples were obtained at 0.083, 0.25, 0.5, 1, 2, 4, 8, and 24 h post dose. At each time point, blood samples were collected from three mice in labeled microcentrifuge tubes containing EDTA-K2 as an anticoagulant. Plasma samples were separated by centrifugation of whole blood and stored at −75 ± 15 °C until bioanalysis. All samples were processed for analysis by precipitation using acetonitrile (ACN) and analyzed with a fit-for-purpose LC/MS/MS method (the below quantifiable limit (BLOQ) was 5.0 ng/mL). Pharmacokinetic parameters were calculated by a noncompartmental analysis model using WinNonlin 8.3.
# [3] = target: T2, purified recombinant human IPMK kinase domain (Homo sapiens, UniProt Q8NFU5); assay: IPMK IC50 determination, Kinase-Glo assay; type: biochemical
# T2 sequence (Q8NFU5 with tags, fused parts or gaps): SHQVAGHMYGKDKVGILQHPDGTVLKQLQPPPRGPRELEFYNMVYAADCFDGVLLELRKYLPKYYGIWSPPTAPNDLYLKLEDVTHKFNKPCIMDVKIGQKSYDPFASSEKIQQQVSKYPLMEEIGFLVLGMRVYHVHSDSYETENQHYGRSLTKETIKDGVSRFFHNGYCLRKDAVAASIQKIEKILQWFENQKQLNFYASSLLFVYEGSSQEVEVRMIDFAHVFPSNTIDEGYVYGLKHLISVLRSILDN
# Source text: (§1) These assay conditions were optimized with respect to reaction time, IPMK enzyme concentration, and IP3 concentration to determine the IC50 values for these ATP-competitive compounds.
# [4] = tested on: purified recombinant human IPMK kinase domain; assay: IPMK IC50 determination, Kinase-Glo assay; type: biochemical; settings: for decrease of inhibitory activity toward IPMK compared to 1: compared to compound 1
# Source text: as §1
# [5] = Solubility; type: physicochemical
# [6] = tested on: human U251-MG glioblastoma cells; assay: CyQuant cell count / proliferation assay; type: cell-based; settings: 400 nM, 48 h, vs DMSO
# Experimental: 1 Compound 1 inhibits human U251 glioblastoma cell growth and labeled inositol phosphate levels. (A) Schematic of inositol phosphate metabolism. (B) Chemical structure of compound 1, indicating moiety A (blue highlight), the core (gray highlight), and moiety B (red highlight), and the IC50 value as determined by the kinase-GLO assay. (C) CyQuant cell count assay of 10,000 human U251-MG glioblastoma cells seeded per well, treated for 48 h with DMSO vehicle or 400 nM compound 1 (n = 8, ***p = 0.0046, unpaired t test). (D) HPLC analysis of ^3H-inositol phosphates from U251-MG cells treated with 400 nM compound 1 (red bars) or DMSO (blue bars) and metabolically labeled with ^3H-inositol for 48 h, expressed as the percentage of the inositol peak from the HPLC for InsP3, InsP4, InsP5, and InsP6, as indicated, *p < 0.05 by unpaired t test Bonferroni corrected for multiple comparisons. (E) Same data as in (D) replotted with a nonzero y-axis to facilitate visualizing differences between DMSO vs. compound treatment for each indicated inositol phosphate species, *p < 0.05 by unpaired t test Bonferroni corrected for multiple comparisons.
# Error represents the standard error from 3 independent assays. (B) CyQuant cellular proliferation assay of 10,000 human U251-MG glioblastoma cells seeded per well, treated for 48 h with DMSO vehicle or 10 μM 14 (n = 8, ****p adj < 0.0001 by one-way ANOVA, Dunnett’s corrected; *p < 0.05 by unpaired t test). (C) HPLC analysis of ^3H-inositol phosphates from U251-MG cells treated with 10 μM compound 14 (red bars) or DMSO (blue bars) and metabolically labeled with ^3H-inositol for 48 h, expressed as a percentage of all the peaks detectable from the HPLC, *p < 0.05, **p < 0.01, ***p < 0.001 by unpaired t test compared to DMSO-treated control for all remaining panels, n = 3. (D) Same as (C) but expressed as a percentage of the inositol HPLC peak, n = 3. (E) Same as C but expressed as a percentage of all the inositol phosphate peaks combined from the HPLC, n = 3.
# [7] = tested on: inositol phosphate levels in U251-MG cells; assay: 3H-inositol metabolic labeling and HPLC of inositol phosphates; type: cell-based, human; settings: 400 nM, 48 h, vs DMSO
# Experimental: Human U251-MG glioblastoma cells (ECACC 09063001) were grown in DMEM supplemented with 10% FBS. The medium was changed to inositol-free DMEM, and cells were inositol-starved for 1–3 days. Cells were maintained in inositol-free DMEM medium, treated with the indicated inhibitor or DMSO for 1–2.5 h, and supplemented with 100 μCi ^3H-inositol (PerkinElmer) for 48 or 72 h, as indicated on each figure. Cells were then washed in PBS and lysed in 200 μL HCl (0.5 M), 250 μL of MeOH was added to each well of a 6-well plate (approximately 10^6 cells), followed by 125 μL of 2 M KCl. Lysates were scraped and sonicated on ice for three 1 min cycles. Inositol phosphate (IP) extracts were cleaned of lipids by adding 250 μL of CHCl3, vortexing and centrifuging samples for 2 min at 5000 rpm to separate upper aqueous and lower organic phases, upper phase contains soluble IPs. This extraction was repeated once. Samples were dried in a SpeedVac, resuspended in 10 mM ammonium phosphate (pH= 3.5), and filtered. HPLC separation and detection of the inositol species on the upper phase used a Partisphere SAX 4.6 mm × 250 mm column, eluted with 10 mM (buffer A) to 1.3 M (buffer B) ammonium phosphate (pH = 3.8) and online flow scintillation analyzer (FSA, PerkinElmer). Elution of [^32P]-labeled IP4, IP5, and IP6 standards confirmed the identity of each peak off the HPLC. Quantification represents three biologically independent metabolic labeling samples with error representing the standard deviation of the mean.
# [8] = Kinase-Glo assay, 12.5 μM Ins(1,4,5)P3, 10 μM ATP, read-out: IC50 toward recombinant human IPMK
# [9] = supplementary csv, read-out: IPMK IC50
structure (smiles),measurement,setting,value
"O=C(Nc1cccc(-c2onc3ccc(-c4nnn[nH]4)cc23)c1)C1CC1 [Compound 11, N-(3-(5-(1H-Tetrazol-5-yl)benzo[c]isoxazol-3-yl)phenyl)cyclopropanecarboxamide]",IP6K2/IPMK,[1],3.5
same,IC50,[1],107 ± 64.4 nM
same,AUC(0-t),[2],19.4 µM·h
same,Cmax,[2],66.6 µM
same,clearance,[2],7.52 mL/min/kg
same,half-life,[2],65.4 min
same,Vd,[2],0.21 L/kg
same,IC50,[3]; [8],30 ± 1.7 nM
same,IC50,[3]; [9],30.2 ± 1.7 nM
"Cc1cc(C)cc(-c2onc3ccc([C@H]4C[C@@H]4C(=O)O)cc23)c1 (racemic) [Compound 2, (±)-trans-2-(3-(3,5-Dimethylphenyl)benzo[c]isoxazol-5-yl)cyclopropane-1-carboxylic acid]",IP6K2/IPMK,[1],1.6
same,IC50,[1],265 ± 20 nM
same,decrease of inhibitory activity toward IPMK compared to 1,[4],6 fold
same,IC50,[3]; [9],166 ± 19.6 nM
"FC(F)(F)c1ccc(-c2onc3ccc(-c4nnn[nH]4)cc23)cc1 [Compound 7, 5-(1H-Tetrazol-5-yl)-3-(4-(trifluoromethyl)phenyl)benzo[c]isoxazole]",IP6K2/IPMK,[1],7.8
same,IC50,[1],146 ± 97.1 nM
same,IC50,[3]; [8],19 ± 1.4 nM
same,IC50,[3]; [9],18.6 ± 1.4 nM
"c1ccc(-c2onc3ccc(-c4nnn[nH]4)cc23)cc1 [Compound 6, 3-Phenyl-5-(1H-tetrazol-5-yl)benzo[c]isoxazole]",IP6K2/IPMK,[1],3.5
same,IC50,[1],125 ± 66.2 nM
same,IC50,[3]; [9],36 ± 5.5 nM
"O=C(Nc1ccc(-c2onc3ccc(-c4nnn[nH]4)cc23)cc1)C1CC1 [Compound 10, N-(4-(5-(1H-Tetrazol-5-yl)benzo[c]isoxazol-3-yl)phenyl)cyclopropanecarboxamide]",IP6K2/IPMK,[1],5.1
same,IC50,[1],297 ± 141 nM
same,IC50,[3]; [8],58 ± 3.4 nM
same,IC50,[3]; [9],58.2 ± 3.4 nM
"Cc1cc(C)cc(-c2onc3ccc(-c4nnn[nH]4)cc23)c1 [Compound 4, 3-(3,5-Dimethylphenyl)-5-(1H-tetrazol-5-yl)benzo[c]isoxazole]",IP6K2/IPMK,[1],4.6
same,IC50,[1],113 ± 69.5 nM
same,solubility compared to compound 3,[5],improved
same,improved potency toward IPMK compared to compound 3,[4]; compared to compound 3,9 fold
same,IC50,[3]; [8],25 ± 1.6 nM
same,IC50,[3]; [9],24.7 ± 1.6 nM
"Clc1cnc(Oc2cccc(-c3onc4ccc(-c5nnn[nH]5)cc34)c2)c(Cl)c1 [Compound 13, 3-(3-((3,5-Dichloropyridin-2-yl)oxy)phenyl)-5-(1H-tetrazol-5-yl)benzo[c]isoxazole]",IP6K2/IPMK,[1],1.8
same,IC50,[1],129 ± 44.1 nM
same,Vss (L/kg),[2],increased
same,AUC(0-t),[2],7.7 µM·h
same,Cmax,[2],50.5 µM
same,clearance,[2],15.5 mL/min/kg
same,half-life,[2],121 min
same,Vd,[2],0.27 L/kg
same,IC50,[3]; [9],72.1 ± 5.2 nM
"c1ccc(Oc2ccc(-c3onc4ccc(-c5nnn[nH]5)cc34)cc2)cc1 [Compound 9, 3-(4-Phenoxyphenyl)-5-(1H-tetrazol-5-yl)benzo[c]isoxazole]",IP6K2/IPMK,[1],5.1
same,IC50,[1],942 ± 348 nM
same,IC50,[3]; [9],185 ± 15.5 nM
Cc1cc(C)cc(-c2onc3ccc(C(=O)O)cc23)c1 [Compound 3],decrease of inhibitory activity toward IPMK compared to 1,[4],8 fold
same,IC50,[3]; [9],215 ± 37.5 nM
"Cc1cc(C)cc(-c2onc3ccc(/C=C/C(=O)O)cc23)c1 [Compound 1, (E)-3-(3-(3,5-Dimethylphenyl)benzo[c]isoxazol-5-yl)acrylic Acid]","cell number, CyQuant DNA content assay",[6],significant decrease in cell number
same,accumulation of InsP4,[7],significantly decreased
same,accumulation of InsP5,[7],significantly decreased
same,accumulation of InsP6,[7],significantly decreased
same,IP6K2/IPMK,[1],9.5
same,IC50,[1],248 ± 119 nM
same,IC50,[3]; [8],26 nM and 26.2 nM
"FC(F)(F)Oc1ccc(-c2onc3ccc(-c4nnn[nH]4)cc23)cc1 [Compound 8, 5-(1H-Tetrazol-5-yl)-3-(4-(trifluoromethoxy)phenyl)benzo[c]isoxazole]",IP6K2/IPMK,[1],5.0
same,IC50,[1],91.7 ± 50.9 nM
same,AUC(0-t),[2],46.9 µM·h
same,Cmax,[2],33 µM
same,clearance,[2],3.15 mL/min/kg
same,half-life,[2],55.2 min
same,Vd,[2],0.26 L/kg
same,IC50,[3]; [8],18 ± 1.6 nM
same,IC50,[3]; [9],18.3 ± 1.6 nM
"c1cc(OC2CCNCC2)cc(-c2onc3ccc(-c4nnn[nH]4)cc23)c1 [Compound 12, 3-(3-(Piperidin-4-yloxy)phenyl)-5-(1H-tetrazol-5-yl)benzo[c]isoxazole]",IP6K2/IPMK,[1],4.9
same,IC50,[1],153 ± 79.8 nM
same,AUC(0-t),[2],10.8 µM·h
same,Cmax,[2],44 µM
same,clearance,[2],11.8 mL/min/kg
same,half-life,[2],77.4 min
same,Vd,[2],0.23 L/kg
same,IC50,[3]; [8],31 ± 4 nM
same,IC50,[3]; [9],31.3 ± 4 nM
